Experimental data from US8952024B2, “Herbicidal pyrimidone derivatives” (E I du Pont de Nemours and Company, priority 2009, dated 2015).

Test system: Russian thistle (Salsola kali)
Assay: Test B pre-/postemergence plant response
Format: in vivo
Details: Preemergence
Outline: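 Greenhouse herbicide screen. Pre- and postemergence (1- to 4-leaf) spray of compound in solvent/surfactant mixture; loam–sand soil for pre, peat/vermiculite medium for post. Visual control rating 0–100 at 13 to 15 days after treatment.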

[1] = 125 g ai/ha, scale 0 to 100, 0 no effect, 100 complete control
[2] = 31 g ai/ha, scale 0 to 100 (0 no effect, 100 complete control)
[3] = 62 g ai/ha, scale 0 to 100, 0 no effect, 100 complete control

SMILES: CC(C)Cc1ncc(C(=O)C2=C(O)CCCC2=O)c(=O)n1-c1ccccc1 [Compound 68]
- Plant response rating, Russian Thistle [1]: 80

SMILES: O=C1CCCC(O)=C1C(=O)c1cnc(-c2cccc(Br)c2)n(-c2ccccc2)c1=O [Compound 69]
- Plant response rating, Russian Thistle [2]: 100
- Plant response rating, Russian Thistle [3]: 100
- Plant response rating, Russian Thistle [1]: 100

SMILES: CCCc1ncc(C(=O)C2=C(O)CCCC2=O)c(=O)n1CCC [Compound 72]
- Plant response rating, Russian Thistle [2]: 0
- Plant response rating, Russian Thistle [3]: 30
- Plant response rating, Russian Thistle [1]: 80
